This note sets out measurements from ChEMBL document CHEMBL5725310, “Substituted imidazo[1,5-α]pyridines and imidazo[1,5-α]pyrazines as LSD1 inhibitors” (2017).

The target of this experiment is Lysine-specific histone demethylase 1A (Homo sapiens, UniProt O60341). Briefly: Demethylase Biochemical Assay: LANCE LSD1/KDM1A demethylase assay¿10 uL of 1 nM LSD-1 enzyme (ENZO BML-SE544-0050) in the assay buffer (50 mM Tris, pH 7.5, 0.01% Tween-20, 25 mM NaCl, 5 mM DTT) were preincubated for 1 hour at 25° C. with 0.8 uL compound/DMSO dotted in black 384 well polystyrene plates. Reactions were started by addition of 10 uL of assay buffer containing 0.4 uM Biotin-labeled Histone H3 peptide substrate: ART-K(Me1)-QTARKSTGGKAPRKQLA-GGK(Biotin) SEQ ID NO:1 (AnaSpec 64355) and incubated for 1 hour at 25° C. Reactions were stopped by addition of 10 uL 1x LANCE Detection Buffer (PerkinElmer CR97-100) supplemented with 1.5 nM Eu-anti-unmodified H3K4 Antibody (PerkinElmer TRF0404), and 225 nM LANCE Ultra Streptavidin (PerkinElmer TRF102) along with 0.9 mM Tranylcypromine-HCl (Millipore 616431). After stopping the reactions plates were incubated for 30 minutes and read on a PHERAstar FS plate reader (BMG Labtech).

Take `COC(=O)N(C)c1ccc(-c2c(-c3ccc(C#N)cc3)nc(N3CCC(N(C)C)CC3)c3cncn23)cn1`: the half-maximal inhibitory concentration (IC50) is < 50 nM.
The value for `COC(=O)N(C)c1ccc(-c2c(-c3ccc(C#N)cc3)cc(OC[C@@H]3CCCN(C)C3)c3cncn23)cn1` was < 50 nM.
With `COC(=O)N(C)c1ccc(-c2c(-c3ccc(C#N)cc3)nc(N3CCC(N(C)C)CC3)c3cncn23)cc1F`, the half-maximal inhibitory concentration (IC50) is < 50 nM.
